The record followed here is patent EP3263567A1, “CARBOXAMIDE-SUBSTITUTED PYRAZOLES AND TRI(HETERO)ARYL-PYRAZOLES FOR USE IN METHODS OF TREATING AND / OR PREVENTING CARDIOVASCULAR DISEASES AND / OR COMORBIDITIES THEREOF” (AiCuris Anti-infective Cures GmbH, priority 2016, dated 2018).

This assay deals with T1, HCN4 (Homo sapiens, UniProt Q9Y3Q4).
T1 sequence (Q9Y3Q4 1-1203): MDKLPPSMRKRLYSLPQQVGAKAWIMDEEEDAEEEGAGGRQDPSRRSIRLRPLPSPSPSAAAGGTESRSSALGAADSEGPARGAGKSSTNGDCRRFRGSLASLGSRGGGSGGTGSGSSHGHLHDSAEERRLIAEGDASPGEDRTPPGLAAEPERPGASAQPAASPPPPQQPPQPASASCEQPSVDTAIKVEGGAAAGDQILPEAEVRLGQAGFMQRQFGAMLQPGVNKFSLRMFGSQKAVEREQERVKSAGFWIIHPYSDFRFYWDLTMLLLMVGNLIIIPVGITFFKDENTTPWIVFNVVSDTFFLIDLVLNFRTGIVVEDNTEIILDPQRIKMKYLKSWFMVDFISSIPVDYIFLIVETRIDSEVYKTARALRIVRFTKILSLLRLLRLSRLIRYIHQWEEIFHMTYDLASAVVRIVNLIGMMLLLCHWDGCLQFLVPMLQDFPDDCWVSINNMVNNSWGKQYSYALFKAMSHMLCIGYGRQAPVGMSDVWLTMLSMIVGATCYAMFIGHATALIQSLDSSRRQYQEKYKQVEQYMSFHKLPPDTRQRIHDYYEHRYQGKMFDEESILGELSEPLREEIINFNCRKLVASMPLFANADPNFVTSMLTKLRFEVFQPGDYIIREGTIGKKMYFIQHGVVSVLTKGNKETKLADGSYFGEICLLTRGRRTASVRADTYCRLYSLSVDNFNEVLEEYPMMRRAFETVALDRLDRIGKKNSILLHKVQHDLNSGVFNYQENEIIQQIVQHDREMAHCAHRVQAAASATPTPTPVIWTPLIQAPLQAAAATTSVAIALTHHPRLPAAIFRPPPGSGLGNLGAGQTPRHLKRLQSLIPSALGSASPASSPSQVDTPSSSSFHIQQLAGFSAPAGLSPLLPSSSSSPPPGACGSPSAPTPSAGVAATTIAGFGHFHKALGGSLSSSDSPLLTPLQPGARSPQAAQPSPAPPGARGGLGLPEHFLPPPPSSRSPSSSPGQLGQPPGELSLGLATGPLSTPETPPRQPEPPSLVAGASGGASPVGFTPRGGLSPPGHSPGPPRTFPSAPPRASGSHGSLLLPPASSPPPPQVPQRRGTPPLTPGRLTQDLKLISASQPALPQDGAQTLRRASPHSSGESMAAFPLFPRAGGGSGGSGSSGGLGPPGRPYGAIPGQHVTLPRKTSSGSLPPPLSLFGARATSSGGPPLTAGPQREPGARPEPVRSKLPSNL
The assay can be described thus: Whole-cell patch-clamp, HCN4 currents in stably transfected CHO cells. Type of assay: cell-based. Set-up: expressed in transfected cells; host or cells: CHO (ATCC CCL-61), stably transfected; selection with Hygromycin and Geneticin. Here is the method: [drawing 92] i.e. 4-[5-[3-Chloro-5-(trifluoromethoxy) phenyl]-1-(pyridin-3-yl)-1H-pyrazol-3-yl]-5,6-dihydro-7H-pyrrolo[3,4-d]pyrimidin-7-one, was tested for its effects on human Nav1.5, Cav1.2, Kv1.5, and HCN4 currents recorded from stably transfected CHO cells. The effect of four concentrations of this compound on these currents was investigated.
The whole-cell patch-clamp technique was used to investigate the effect of Compound A on the currents of Nav1.5, Kv1.5, Cav1.2 and HCN4 channels, expressed in CHO cells (ATCC, CCL-61). Compound A was tested at concentrations of 200 nM, 600 nM, 2000 nM and 6000 nM. For all ion channels 0.1% DMSO was used as vehicle and ZD7288 as suitable blockers were applied to assure accuracy of the method. The selection antibiotics can be dervied from the Table below:
Concentrations of 200 nM, 600 nM, 2000 nM and 6000 nM of Compound A were tested. […]
The 35 mm culture dishes upon which cells were seeded at a density allowing single cells to be recorded were placed on the dish holder of the microscope and continuously perfused (at approximately 1 mL/min) with the bath solution described in section 4.7. […]
As soon as a stable seal could be established outward tail currents were measured upon pulses described in the Table below: […]
Values in Ampere (A) of the peak amplitudes of outward tail currents were generated for each voltage step. […] The recorded current amplitudes at the steady state level of current inhibition were compared to those from control conditions measured in the pre-treatment phase of the same cell. The amount of current block was calculated as percentage of control. To determine whether the observed current inhibition was due to Compound A-interaction with the respective ion channel or due to current rundown, these residual currents were compared to those measured in vehicle treated cells. Data from at least two individual experiments were collected and the corresponding mean values and standard deviations were calculated. […]

Each structure is given as a SMILES string.

As for `O=C1NCc2c1ncnc2-c1cc(-c2cc(Cl)cc(OC(F)(F)F)c2)n(-c2cccnc2)n1` [Compound A, 4-[5-[3-Chloro-5-(trifluoromethoxy)phenyl]-1-(pyridin-3-yl)-1H-pyrazol-3-yl]-5,6-dihydro-7H-pyrrolo[3,4-d]pyrimidin-7-one], the “reduction of the current amplitude (HCN4)” value (at ≤ 6 µM) was “more than 30%”. Besides, under “stably transfected CHO cells”, the “Hill coefficient (HCN4)” value is 1.15. This compound also registered an IC50 (stably transfected CHO cells, 200, 600, 2000, 6000 nM tested) of 879 nM.

Usually IC50 stands for the point on the concentration scale where inhibition reaches its midpoint. The low end stands for higher potency, the high end for lower potency.
